Reference: patent US6294526A, “Use of flavone derivatives for induction of β-lactam-sensitivity of MRSA” (priority 1998, dated 2001)
Converted amounts (≈) assume the structure as drawn. Like-named read-outs stand apart in the source and are kept apart here.

Legend:
MRSA [1] = experiment: antibacterial activity (MIC) by agar plate dilution method, MRSA strains; assay type: cell-based, methicillin-resistant Staphylococcus aureus
Procedure: (§1) The screening of the present invention may be carried out according to the agar plate dilution method designated by the Japan Society of Chemotherapy (Chemotherapy 29(1), 76-79 (1981)). Mueller-Hinton agar base semi-synthetic medium may be used for a plate culture medium for a sensitivity test together with an inoculating bacteria solution which may be prepared by culturing bacteria to be tested at 37° C. for 20 hours diluted with 8.5% by isotonic sodium chloride solution to 10^6 CFU/ml. Diluted β-lactam solutions are prepared by two times serial dilution. 1 ml of the diluted β-lactam solution and 1 ml of a predetermined concentration of a sample to be tested are added to 8 ml of the plate culture medium for a sensitivity test. To the resultant plate culture medium for sensitivity test, the bacteria are inoculated using a microplanter (SAKUMASEISAKUSYO Co.), cultured for 20 hours at 37° C. followed by assessing for a minimum inhibition concentration (MIC).
(§2) (A) Antibacterial activities of ether extract from Scutellaria barbata, SB-1 (isolated from Scutellaria barbata), apigenin (authentic sample) and luteolin (authentic sample) were shown in Table 1.
(§3) Flavones were dissolved in methanol and the others were dissolved in 0.1 N NaOH. A method for determination of antibacterial activity is, as described above, an agar plate dilution method designated by the Japan Society of Chemotherapy (Chemotherapy 29(1), 76-79 (1981)) to determine MIC value. MIC80 is a concentration at which a strain is prohibited to proliferate by 80% and MIC50 is a concentration at which a strain is prohibited to proliferate by 50%.

MSSA = experiment: antibacterial activity (MIC) by agar plate dilution method, MSSA strains; assay type: cell-based, Methicillin-sensitive Staphylooccus aureus
Procedure: as §1, §2, §3

MRSA [2] = experiment: antibacterial activity of antibiotics alone and in the presence of apigenin (4 μg/ml), MRSA; assay type: cell-based, methicillin-resistant Staphylococcus aureus; details: apigenin 4 μg/ml or less than its MIC
Procedure: as §1
(D) Then use of 4 μg/ml of apigenin and other antibiotics at the same time was studied. The antibiotics are penicillin , ampicillin, cephalothin, cefoxitin, cefuroxime, cefotaxime, vancomycin, streptomycin, chloramphenicol, kanamycin, erythromycin, nalixic acid and tetracycline.

MRSA and MSSA = experiment: antibacterial activity (MIC) by agar plate dilution method, MRSA and MSSA strains together; assay type: cell-based, Staphylococcus aureus; details: MRSA and MSSA, Table 2
Procedure: as §1, with “(MIC). […]” for “(MIC).”
Antibacterial activity is determined for flavones including flavone, flavonol, flavanone, isoflavone, catechin and calchone, as follows:
as §3

O=c1cc(-c2ccc(O)cc2)oc2cc(O)cc(O)c12 [Apigenin, apigenin]
MIC (MRSA [1]; MRSA strain No. 1): 7.8 µg/mL (≈ 28.9 µM)
MIC (MRSA [1]; MRSA strain No. 2): 3.9 µg/mL (≈ 14.4 µM)
MIC (MRSA [1]; MRSA strain No. 3): 7.8 µg/mL (≈ 28.9 µM)
MIC (MRSA [1]; MRSA strain No. 4): 7.8 µg/mL (≈ 28.9 µM)
MIC (MRSA [1]; MRSA strain No. 5): 3.9 µg/mL (≈ 14.4 µM)
MIC (MRSA [1]; MRSA strain No. 6): 3.9 µg/mL (≈ 14.4 µM)
MIC (MRSA [1]; MRSA strain No. 8): 3.9 µg/mL (≈ 14.4 µM)
MIC (MRSA [1]; MRSA strain No. 9): 3.9 µg/mL (≈ 14.4 µM)
MIC (MRSA [1]; MRSA strain No. 9, listed as SB-1): 15.6 µg/mL (≈ 57.7 µM)
MIC (MRSA [1]; MRSA strain No. 13): 7.8 µg/mL (≈ 28.9 µM)
MIC (MRSA [1]; MRSA strain No. 13, listed as SB-1): 31.3 µg/mL (≈ 116 µM)
MIC (MRSA [1]; MRSA strain No. 14): 7.8 µg/mL (≈ 28.9 µM)
MIC (MRSA [1]; MRSA strain No. 14, listed as SB-1): 31.3 µg/mL (≈ 116 µM)
MIC (MRSA [1]; MRSA strain No. 15): 7.8 µg/mL (≈ 28.9 µM)
MIC (MRSA [1]; MRSA strain No. 16): 7.8 µg/mL (≈ 28.9 µM)
MIC (MRSA [1]; MRSA strain No. 17): 3.9 µg/mL (≈ 14.4 µM)
MIC50 (MRSA [1]; Staphylococcus aureus, 20 h, MRSA (20 strains), read-out: MIC50): 7.8 µg/mL (≈ 28.9 µM)
MIC (MRSA [1]; Staphylococcus aureus, MRSA, 20 h, MRSA strain No. 1, read-out: MIC): 15.6 µg/mL (≈ 57.7 µM)
MIC (MRSA [1]; Staphylococcus aureus, MRSA, 20 h, MRSA strain No. 2, read-out: MIC): 7.8 µg/mL (≈ 28.9 µM)
MIC (MRSA [1]; Staphylococcus aureus, MRSA, 20 h, MRSA strain No. 3, read-out: MIC): 15.6 µg/mL (≈ 57.7 µM)
MIC (MRSA [1]; Staphylococcus aureus, MRSA, 20 h, MRSA strain No. 4, read-out: MIC): 15.6 µg/mL (≈ 57.7 µM)
MIC (MRSA [1]; Staphylococcus aureus, MRSA, 20 h, MRSA strain No. 5, read-out: MIC): 7.8 µg/mL (≈ 28.9 µM)
MIC (MRSA [1]; Staphylococcus aureus, MRSA, 20 h, MRSA strain No. 6, read-out: MIC): 7.8 µg/mL (≈ 28.9 µM)
MIC (MRSA [1]; Staphylococcus aureus, MRSA, 20 h, MRSA strain No. 7, read-out: MIC): 3.9 µg/mL (≈ 14.4 µM)
MIC (MRSA [1]; Staphylococcus aureus, MRSA, 20 h, MRSA strain No. 8, read-out: MIC): 7.8 µg/mL (≈ 28.9 µM)
MIC (MRSA [1]; Staphylococcus aureus, MRSA, 20 h, MRSA strain No. 10, read-out: MIC): 15.6 µg/mL (≈ 57.7 µM)
MIC (MRSA [1]; Staphylococcus aureus, MRSA, 20 h, MRSA strain No. 11, read-out: MIC): > 250 µg/mL
MIC (MRSA [1]; Staphylococcus aureus, MRSA, 20 h, MRSA strain No. 12, read-out: MIC): > 250 µg/mL
MIC (MRSA [1]; Staphylococcus aureus, MRSA, 20 h, MRSA strain No. 15, read-out: MIC): 15.6 µg/mL (≈ 57.7 µM)
MIC (MRSA [1]; Staphylococcus aureus, MRSA, 20 h, MRSA strain No. 16, read-out: MIC): 15.6 µg/mL (≈ 57.7 µM)
MIC (MRSA [1]; Staphylococcus aureus, MRSA, 20 h, MRSA strain No. 17, read-out: MIC): 7.8 µg/mL (≈ 28.9 µM)
MIC (MRSA [1]; Staphylococcus aureus, MRSA, 20 h, MRSA strain No. 18, read-out: MIC): > 250 µg/mL
MIC (MRSA [1]; Staphylococcus aureus, MRSA, 20 h, MRSA strain No. 19, read-out: MIC): > 250 µg/mL
MIC (MRSA [1]; Staphylococcus aureus, MRSA, 20 h, MRSA strain No. 20, read-out: MIC): 31.3 µg/mL (≈ 116 µM)
MIC (MSSA; MSSA strain No. 21): > 250 µg/mL
MIC (MSSA; MSSA strain No. 22): > 250 µg/mL
MIC (MSSA; MSSA strain No. 24): 3.9 µg/mL (≈ 14.4 µM)
MIC (MSSA; MSSA strain No. 24, listed as SB-1): 31.3 µg/mL (≈ 116 µM)
MIC (MSSA; MSSA strain No. 25): 3.9 µg/mL (≈ 14.4 µM)
MIC (MSSA; MSSA strain No. 27): 15.6 µg/mL (≈ 57.7 µM)
MIC (MSSA; MSSA strain No. 27, listed as SB-1): 31.3 µg/mL (≈ 116 µM)
MIC50 (MSSA; Staphylococcus aureus, 20 h, MSSA (7 strains), read-out: MIC50): 15.6 µg/mL (≈ 57.7 µM)
MIC (MSSA; Staphylococcus aureus, MSSA, 20 h, MSSA strain No. 21, read-out: MIC): 250 µg/mL (≈ 925 µM)
MIC (MSSA; Staphylococcus aureus, MSSA, 20 h, MSSA strain No. 22, read-out: MIC): 250 µg/mL (≈ 925 µM)
MIC (MSSA; Staphylococcus aureus, MSSA, 20 h, MSSA strain No. 23, read-out: MIC): 15.6 µg/mL (≈ 57.7 µM)
MIC (MSSA; Staphylococcus aureus, MSSA, 20 h, MSSA strain No. 25, read-out: MIC): 7.8 µg/mL (≈ 28.9 µM)
MIC (MSSA; Staphylococcus aureus, MSSA, 20 h, MSSA strain No. 26, read-out: MIC): 15.6 µg/mL (≈ 57.7 µM)
inhibition of β-lactam resistant MRSA / improvement of antibacterial effect with apigenin (in words) (MRSA [2]): could improve antibacterial effect of methicillin on MRSA
antibacterial activity (in words) (MRSA and MSSA): showed antibacterial activity
